Reference: US7115584B2, “HIV-1 mutations selected for by β-2′,3′-didehydro-2′,3′-dideoxy-5-fluorocytidine” (priority 1999, dated 2006)
Where two headings read alike, the source gives them in different places.

Tests used:
[1] = tested on: acutely infected human PBM cells; assay: Median effect and combination index analysis, alone and in combination; type: cell-based; conditions: PBMC, 144 h
HIV-1LAV = assay: Effect against HIV-1 and cloned viruses in human PBM cells; type: cell-based
M184VPITT = assay: as above; type: cell-based
[2] = tested on: 4X AZTPITT (67N, 70R, 215Y, 219Q); assay: as above; type: cell-based
M184V/T215YPITT = assay: as above; type: cell-based
215/41PITT = assay: as above; type: cell-based
[3] = tested on: G2-2PITT (103N, 41L, 184V, 210W, others); assay: Effect against cloned viruses, in MT-2 cells; type: cell-based, HIV-1; parameters: unit not given beside the values
xxBRUPITT = assay: Effect against HIV-1 and cloned viruses in human PBM cells; type: cell-based
T215YPITT = assay: as above; type: cell-based
[4] = EC50 resistant virus vs HIV-1LAV or xxBRUPITT, listed as β-D-D4FC

**Q.** How did the EC90 [1] turn out when `Cc1cn([C@H]2C[C@H](N=[N+]=[N-])[C@@H](CO)O2)c(=O)[nH]c1=O` [AZT, 3′-azido-3′-deoxythymidine] was run?
**A.** 32 nM

**Q.** Which results are given for `Nc1nc(=O)n([C@H]2C=C[C@@H](CO)O2)cc1F` [D-D4FC, β-2′,3′-didehydro-2′,3′-dideoxy-5-fluorocytidine]?
**A.** EC50 (HIV-1LAV; listed as β-D-D4FC): 220 nM; EC90 (HIV-1LAV; listed as β-D-D4FC): 1320 nM; FI50 (M184VPITT; [4]): 2; FI50 ([2]; 4X AZTPITT, EC50 resistant virus vs HIV-1LAV or xxBRUPITT): 1; FI90 ([2]; 4X AZTPITT, EC90 resistant virus vs HIV-1LAV or xxBRUPITT): 1; EC90 ([2]; human PBM cells, 4X AZTPITT (67N, 70R, 215Y, 219Q), listed as β-D-D4FC): 460 nM; FI50 (M184V/T215YPITT; [4]): 1; FI90 (M184V/T215YPITT; EC90 resistant virus vs HIV-1LAV or xxBRUPITT, listed as β-D-D4FC): 1; FI90 (215/41PITT; EC90 resistant virus vs HIV-1LAV or xxBRUPITT): 1; FI50 ([3]; listed as β-D-D4FC): 0.2

**Q.** How did the EC50 (HIV-1LAV) turn out when `Nc1nc(=O)n([C@H]2C=C[C@@H](CO)O2)cc1F` [β-L-D4FC, β-2′,3′-didehydro-2′,3′-dideoxy-5-fluorocytidine] was run?
**A.** 34 nM

**Q.** What about the EC90 (HIV-1LAV) of the same compound?
**A.** 160 nM

**Q.** And the EC50 (xxBRUPITT)?
**A.** 25 nM

**Q.** And the EC90 (xxBRUPITT)?
**A.** 88 nM

**Q.** What about the EC50 (M184VPITT; human PBM cells) of the same compound?
**A.** 3660 nM

**Q.** And the EC90 (M184VPITT; human PBM cells)?
**A.** 14300 nM

**Q.** And the EC50 (T215YPITT)?
**A.** 4.7 nM

**Q.** What about the EC90 (T215YPITT) of the same compound?
**A.** 30 nM

**Q.** And the EC50 (M184V/T215YPITT; human PBM cells)?
**A.** 8300 nM

**Q.** And the EC90 (M184V/T215YPITT; human PBM cells)?
**A.** 74600 nM

**Q.** And the EC50 (215/41PITT; human PBM cells)?
**A.** 18 nM

**Q.** What about the EC90 (215/41PITT; human PBM cells) of the same compound?
**A.** 66 nM

**Q.** What about the FI50 [3] of the same compound?
**A.** >47
